Laboratory results reported in US12441703B2, “Carboxamides as modulators of sodium channels” (VERTEX PHARMACEUTICALS INCORPORATED, priority 2019, dated 2025).

The molecules below were run against human NaV 1.8 (Homo sapiens, UniProt Q9Y5Y9) (assay: E-VIPR assay for detecting and measuring NaV inhibition properties). Conditions: E-VIPR assay conducted in the presence of human serum; HEK cells expressing truncated human NaV 1.8; read-out: IC50.
Assay type: cell-based
Excerpt: Sodium ion channels are voltage-dependent proteins that can be activated by inducing membrane voltage changes by applying electric fields. The electrical stimulation instrument and methods of use, referred to as E-VIPR, are described in International Publication No. WO 2002/008748 A3 and C.-J. Huang et al. Characterization of voltage-gated sodium channel blockers by electrical stimulation and fluorescence detection of membrane potential, 24 Nature Biotech. 439-46 (2006), both of which are incorporated by reference in their entirety. The instrument comprises a microtiter plate handler, an optical system for exciting the coumarin dye while simultaneously recording the coumarin and oxonol emissions, a waveform generator, a current- or voltage-controlled amplifier, and parallel electrode pairs that are inserted into assay plate wells. Under integrated computer control, this instrument passes user-programmed electrical stimulus protocols to cells within the wells of the microtiter plate.
16-20 hours prior to running the assay on E-VIPR, HEK cells expressing a truncated form of human NaV 1.8 with full channel activity were seeded into microtiter 384-well plates, pre-coated with matrigel, at a density of 25,000 cells per well. 2.5-5% KIR2.1 Bacmam virus was added to the final cell suspension before seeding into cell plates. HEK cells were grown in Dulbecco's Modified Eagle's Medium (DMEM) supplemented with 10% FBS (Fetal Bovine Serum, qualified; Sigma #F4135), 1% NEAA (Non-Essential Amino Acids, Gibco #11140), 1% HEPES (Gibco #15630), 1% Pen-Strep (Penicillin-Streptomycin; Gibco #15140) and 5 μg/ml Blasticidin (Gibco #R210-01). Cells were expanded in vented cap cell culture flasks, with 90-95% humidity and 5% CO2.
Compound Loading Buffer (2× concentration): Na/TMA Cl Bath1 Buffer containing HS (omitted in experiments run in the absence of human serum (HS)) 50%, VABSC-1 1 mM, BSA 0.2 mg/ml (in Bath-1), KCl 9 mM, DMSO 0.75%.
• 1) To reach the final concentration in each well, 400 nL of each compound was pre-spotted (in neat DMSO) into polypropylene compound plates at 250× desired final concentration from an intermediate stock concentration of 0.075 mM, in an 11 point dose response, 3-fold dilution, resulting in a top dose of 300 nM final concentration in the cell plate. Vehicle control (neat DMSO), and positive control (an established NaV1.8 inhibitor, 25 μM final in assay in DMSO) were added manually to the outermost columns of each plate respectively. The compound plate was backfilled with 45 μL per well of Compound Loading Buffer resulting in a 250 fold dilution of compound following a 1:1 transfer of compound into the cell plate (see Step 6). Final DMSO concentration for all wells in the assay was 0.625% (0.75% DMSO was supplemented to the Compound Loading Buffer for a final DMSO concentration of 0.625%). This assay dilution protocol was adjusted to enable a higher dose range to be tested in the presence of HS or if the final assay volume was altered. • 2) Hexyl Dye Solution was prepared. • 3) Cell plates were prepared. On the day of the assay, the media was aspirated, and the cells were washed three times with 80 μL of Bath-1 buffer, maintaining 25 μL residual volume in each well. • 4) 25 μL per well of Hexyl Dye Solution was dispensed into the cell plates. The cells were incubated for 20 minutes at room temperature or ambient conditions in darkness. • 5) 45 μL per well of Compound Loading Buffer was dispensed into compound plates. • 6) The cell plates were washed three times with 80 μL per well of Bath-1 Buffer, leaving 25 µL of residual volume. Then 25 μL per well from compound plate was transferred to each cell plate. The mixture was incubated for 30 minutes at room temperature/ambient conditions. • 7) The cell plate containing compound was read on E-VIPR using the current-controlled amplifier to deliver stimulation wave pulses using a symmetrical biphasic waveform. […]

Sequence of human NaV 1.8 (Q9Y5Y9 whole entry, looked up, the tested form may be a part): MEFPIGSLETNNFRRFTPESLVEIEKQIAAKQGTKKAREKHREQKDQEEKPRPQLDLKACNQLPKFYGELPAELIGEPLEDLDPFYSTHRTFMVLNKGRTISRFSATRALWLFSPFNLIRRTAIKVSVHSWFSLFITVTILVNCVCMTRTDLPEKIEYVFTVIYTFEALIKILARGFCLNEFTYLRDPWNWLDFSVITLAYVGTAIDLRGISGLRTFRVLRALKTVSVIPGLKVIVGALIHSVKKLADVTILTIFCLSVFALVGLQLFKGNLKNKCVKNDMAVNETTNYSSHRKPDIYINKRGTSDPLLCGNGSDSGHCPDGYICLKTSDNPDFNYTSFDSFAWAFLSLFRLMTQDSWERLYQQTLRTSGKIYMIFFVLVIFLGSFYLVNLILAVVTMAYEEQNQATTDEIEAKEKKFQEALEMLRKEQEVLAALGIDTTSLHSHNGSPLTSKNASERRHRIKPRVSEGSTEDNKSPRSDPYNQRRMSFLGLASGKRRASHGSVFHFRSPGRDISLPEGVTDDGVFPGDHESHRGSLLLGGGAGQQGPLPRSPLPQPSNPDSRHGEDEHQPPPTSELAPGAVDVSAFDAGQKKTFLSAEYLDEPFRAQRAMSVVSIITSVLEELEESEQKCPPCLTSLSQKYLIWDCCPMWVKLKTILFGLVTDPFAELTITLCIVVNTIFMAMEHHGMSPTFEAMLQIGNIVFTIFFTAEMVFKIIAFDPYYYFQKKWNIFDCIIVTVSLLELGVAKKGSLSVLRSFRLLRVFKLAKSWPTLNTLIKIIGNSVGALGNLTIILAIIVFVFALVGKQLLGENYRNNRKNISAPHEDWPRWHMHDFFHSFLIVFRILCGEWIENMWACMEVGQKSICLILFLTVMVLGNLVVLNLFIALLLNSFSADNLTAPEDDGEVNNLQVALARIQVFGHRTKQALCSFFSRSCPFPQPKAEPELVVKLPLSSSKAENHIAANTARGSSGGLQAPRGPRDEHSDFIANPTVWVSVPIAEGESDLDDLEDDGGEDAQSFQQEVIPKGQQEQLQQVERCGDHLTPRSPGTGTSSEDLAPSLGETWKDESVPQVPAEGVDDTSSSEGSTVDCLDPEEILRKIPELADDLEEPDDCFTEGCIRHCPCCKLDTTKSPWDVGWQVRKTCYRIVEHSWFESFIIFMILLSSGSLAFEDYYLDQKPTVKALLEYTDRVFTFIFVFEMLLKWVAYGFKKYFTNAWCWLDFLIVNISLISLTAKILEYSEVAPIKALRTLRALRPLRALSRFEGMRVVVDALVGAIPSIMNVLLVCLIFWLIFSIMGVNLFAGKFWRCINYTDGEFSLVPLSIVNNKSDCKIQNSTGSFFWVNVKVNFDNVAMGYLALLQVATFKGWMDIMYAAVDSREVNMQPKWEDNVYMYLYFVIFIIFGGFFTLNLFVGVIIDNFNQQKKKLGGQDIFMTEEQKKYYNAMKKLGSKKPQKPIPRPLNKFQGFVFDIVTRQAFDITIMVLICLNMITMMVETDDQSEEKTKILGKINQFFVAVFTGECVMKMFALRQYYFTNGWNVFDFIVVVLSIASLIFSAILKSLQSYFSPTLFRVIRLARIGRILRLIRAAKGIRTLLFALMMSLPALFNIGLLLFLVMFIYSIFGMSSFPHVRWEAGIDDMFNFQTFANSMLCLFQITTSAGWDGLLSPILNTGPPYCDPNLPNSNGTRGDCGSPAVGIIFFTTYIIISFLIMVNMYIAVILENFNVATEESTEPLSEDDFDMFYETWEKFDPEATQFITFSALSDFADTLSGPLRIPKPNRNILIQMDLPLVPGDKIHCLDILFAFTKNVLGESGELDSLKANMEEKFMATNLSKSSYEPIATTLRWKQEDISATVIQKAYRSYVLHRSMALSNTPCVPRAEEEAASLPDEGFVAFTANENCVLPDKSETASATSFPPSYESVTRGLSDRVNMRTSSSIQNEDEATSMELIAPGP

Going from “4-[[2-(4-fluoro-2-methoxy-phenyl)-4-(trifluoromethyl)benzoyl]amino]pyridine-2-carboxamide [Compound 175]” to `COc1cc(OC(F)(F)F)ccc1Oc1cc(C2CCC(C(F)(F)F)CC2)ccc1C(=O)Nc1ccnc(C(N)=O)c1` (single isomer, unassigned) [158 (first diastereomer), 4-[[2-[2-methoxy-4-(trifluoromethoxy)phenoxy]-4-[4-(trifluoromethyl)cyclohexyl]benzoyl]amino]pyridine-2-carboxamide], the IC50 falls from over 3000 nM to 960 nM.

Going from `COc1cc(OC(F)(F)F)ccc1Oc1cc(C2CCC(C(F)(F)F)CC2)ccc1C(=O)Nc1ccnc(C(N)=O)c1` (single isomer, unassigned) [158 (second diastereomer), 4-[[2-[2-methoxy-4-(trifluoromethoxy)phenoxy]-4-[4-(trifluoromethyl)cyclohexyl]benzoyl]amino]pyridine-2-carboxamide] to `COc1cc(OC(F)(F)F)ccc1Oc1cc(C2CCC(C(F)(F)F)CC2)cc(F)c1C(=O)Nc1ccnc(C(N)=O)c1` (single isomer, unassigned) [168 (first diastereomer), 4-[[2-fluoro-6-[2-methoxy-4-(trifluoromethoxy)phenoxy]-4-[4-(trifluoromethyl)cyclohexyl]benzoyl]amino]pyridine-2-carboxamide], the IC50 falls from 395 nM to 18 nM (22-fold).

`COc1cc(OC(F)(F)F)ccc1Oc1cc(C2CCC(C(F)(F)F)CC2)cc(F)c1C(=O)Nc1ccnc(C(N)=O)c1` (single isomer, unassigned) [168 (second diastereomer), 4-[[2-fluoro-6-[2-methoxy-4-(trifluoromethoxy)phenoxy]-4-[4-(trifluoromethyl)cyclohexyl]benzoyl]amino]pyridine-2-carboxamide] and `COc1cc(OC(F)(F)F)ccc1Oc1cc(C2CCC(C(C)(C)C)CC2)cc(F)c1C(=O)Nc1ccnc(C(N)=O)c1` (single isomer, unassigned) [169 (first diastereomer), 4-[[4-(4-tert-butylcyclohexyl)-2-fluoro-6-[2-methoxy-4-(trifluoromethoxy)phenoxy]benzoyl]amino]pyridine-2-carboxamide] are within 1.5-fold of each other in IC50: 10 nM for the first, 11 nM for the second.

First: COc1cc(OC(F)(F)F)ccc1Oc1cc(C2CCC(C(C)(C)C)CC2)cc(F)c1C(=O)Nc1ccnc(C(N)=O)c1 (single isomer, unassigned) [169 (second diastereomer), 4-[[4-(4-tert-butylcyclohexyl)-2-fluoro-6-[2-methoxy-4-(trifluoromethoxy)phenoxy]benzoyl]amino]pyridine-2-carboxamide]
Second: [2H]C([2H])([2H])Oc1cc(OC(F)(F)F)ccc1Oc1cc(C2CCC(OC)CC2)cc(F)c1C(=O)Nc1ccnc(C(N)=O)c1 (single isomer, unassigned) [1017 (first diastereomer), 4-[[2-fluoro-4-(4-methoxycyclohexyl)-6-[2-(trideuteriomethoxy)-4-(trifluoromethoxy)phenoxy]benzoyl]amino]pyridine-2-carboxamide]
The IC50 of the first is 12-fold lower: 21 nM for the first, 252 nM for the second.

First: [2H]C([2H])([2H])Oc1cc(OC(F)(F)F)ccc1Oc1cc(C2CCC(OC)CC2)cc(F)c1C(=O)Nc1ccnc(C(N)=O)c1 (single isomer, unassigned) [1017 (second diastereomer), 4-[[2-fluoro-4-(4-methoxycyclohexyl)-6-[2-(trideuteriomethoxy)-4-(trifluoromethoxy)phenoxy]benzoyl]amino]pyridine-2-carboxamide]
Second: COc1cc(OC(F)(F)F)ccc1Oc1cc(C2CCC(OC)CC2)ccc1C(=O)Nc1ccnc(C(N)=O)c1 (single isomer, unassigned) [1032 (first diastereomer), 4-[[4-(4-methoxycyclohexyl)-2-[2-methoxy-4-(trifluoromethoxy)phenoxy]benzoyl]amino]pyridine-2-carboxamide]
The IC50 of the first is 31-fold lower: 17 nM for the first, 524 nM for the second.
